52 compounds from patent publication US8877745B2, “CCR2 receptor antagonists, method for producing the same, and use thereof as medicaments” (Boehringer Ingelheim International GmbH, priority 2010, dated 2014) can be followed below.

The assay deals with T1, CCR2 (Homo sapiens, UniProt P41597).
T1 construct: Membranes were prepared from THP-1 cells; endogenous in cells; host or cells: THP-1 (human acute monocytic leukaemia cells), membrane preparation
T1 sequence (P41597 whole entry): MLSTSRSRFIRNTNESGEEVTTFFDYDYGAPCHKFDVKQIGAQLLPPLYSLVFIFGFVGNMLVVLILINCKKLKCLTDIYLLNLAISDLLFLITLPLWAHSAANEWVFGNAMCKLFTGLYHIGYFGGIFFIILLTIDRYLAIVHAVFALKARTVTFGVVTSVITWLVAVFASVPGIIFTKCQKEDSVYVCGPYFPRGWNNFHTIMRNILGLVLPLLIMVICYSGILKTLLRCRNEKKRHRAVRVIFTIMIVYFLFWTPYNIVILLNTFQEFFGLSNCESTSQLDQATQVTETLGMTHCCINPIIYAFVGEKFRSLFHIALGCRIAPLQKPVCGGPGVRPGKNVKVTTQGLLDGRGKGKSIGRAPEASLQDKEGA
The assay can be described thus: CCR2 receptor membrane binding assay ([125I]MCP-1, THP-1 cell membranes, SPA beads). The following applies: THP-1 membranes, [125I]MCP-1, bound radioactivity determined after 8 h; read-out: hKi. Here is the method:
The above exemplary substances have been tested for binding to CCR2 using a binding assay as outlined herein below:
THP-1 cells (human acute monocytic leukaemia cells) were cultured under standardized conditions at 37° C. and 5% CO2 in a humidified incubator. THP-1 cells were cultivated in RPMI 1640 medium (Gibco 21875) containing 1% MEM-NEAA (Gibso 11140) 2 mM L-glutamine, 1.5 g/L sodium bicarbonate, 4.5 g/L glucose, 10 mM HEPES and 1.0 mM sodium pyruvate, 90%; 10% fetal calf serum (FCS Gibco 10500-064).
Membranes were prepared from THP-1 cells. THP-1 cells were centrifuged at 300×g at 4° C. for 10 min. The cell pellet was resuspended in Phosphate Buffer Saline (PBS, including 10 μM Pefabloc and a protease inhibitor mix ‘complete’, Boehringer Mannheim (1 tablet/50 ml)), to a concentration of […]. The membrane preparation was performed by disrupting the cells by nitrogen […] (at 50 bar, for 1 h) in a “Nitrogen Bombe” (Parr Instrument). Cell debris was removed by centrifugation (800×g at 4° C., 1 min). The supernatant was centrifuged at 80000×g, 4° C. for 30 min to sediment the cell membranes. Usually 50 mg of protein (Bradford assay) were yielded from 1×10E9 cells. The membranes were resuspended in 25 mM HEPES, 25 mM MgCl2, 1 mM CaCl2, 10% Glycerine for storage in aliquots at −80° C. in 25 mM HEPES, 25 mM MgCl2, 1 mM CaCl2, 10% Glycerine and stored at −80° C.
Receptor Membrane Binding Assay:
Perkin Elmer NEX 332 Jod 125 MCP-1, Stock: 2200 Ci/mmol solved in […] assay buffer, stored at −20° C. THP-1 membrane were adjusted with 25 mM HEPES, pH 7.2; 5 mM MgCl2; 0.5 mM CaCl2; 0.2% BSA assay buffer to a concentration of 2.5 μg/15 μl. Amersham Biosciences PVT-WGA Beads (RPNQ0001) were adjusted with assay buffer to a concentration of 0.24 mg/30 μl. For preparation of the membrane-bead-suspension membranes and beads were incubated for 30 min at RT under rotation (60 rpm) with a ratio of 1:2. Test compounds dissolved in 100% DMSO to a concentration of 10 mM and are further diluted with 100% DMSO to 1 mM. All additional compound dilutions were obtained with assay buffer, final 1% DMSO. Compounds, membrane-bead-suspension and [^125I]MCP-1 (ca. 25000 cpm/10 μl) were incubated. Bound radioactivity was determined by scintillation counter after 8 h. Determination of affinity of test compounds (dissociation constant hKi) is calculated by iterative fitting of experimental data using the “easy sys” program, which is based on law of mass action (Schittkowski K. (1994), Numerische Mathematik, Vol. 68, 129-142).
With `COC1COCCC1NC1CCN(C(=O)c2ncnc(N3CCC4(C=Cc5ccccc54)CC3)c2C)CC1` (stereo not shown) [Example 23], the Ki was 455 nM.

On to `COC1COCCC1NC1CCN(C(=O)c2ncnc(N3CCC(c4ccccc4F)C3)c2C)CC1` (stereo not shown) [Example 51], for which the Ki came out at 405 nM.

With `Cc1c(C(=O)N2CCC(N3CCC(N(C)S(C)(=O)=O)CC3)CC2)ncnc1N1CCC(c2cccc(Cl)c2)CC1` [Example 27], the Ki worked out at 661 nM.

`Cc1c(C(=O)N2CCC(N3CCC(c4cccc(C(=O)O)c4)CC3)CC2)ncnc1N1CCc2ccc(C(F)(F)F)cc2C1` [Example 83]: the Ki was determined as 698 nM.

For `COC1COCCC1NC1CCN(C(=O)c2ncnc(N3CCc4ccccc4CC3)c2C)CC1` (stereo not shown) [Example 54], the Ki turned out to be 636 nM.

With `Cc1c(C(=O)N2CCC(NC3CCOCC3F)CC2)ncnc1N1CCc2ccc(C(F)(F)F)cc2C1` (stereo not shown) [Example 69k], the Ki worked out at 29 nM.

Turning to `COC1COCCC1NC1CCN(C(=O)c2ncnc(N3CCN(c4ccc(F)c(Cl)c4)CC3)c2C)CC1` (stereo not shown) [Example 62u], the Ki is 114 nM.

As for `COc1nc(C(=O)N2CCC(NC3CCOCC3F)CC2)c(C)c(N2CCc3ccc(C(F)(F)F)cc3C2)n1` (stereo not shown) [Example 69s], the Ki is 8 nM.

`COC1COCCC1NC1CCN(C(=O)c2ncnc(N3CCC(c4ccccc4C(F)(F)F)C3)c2C)CC1` (stereo not shown) [Example 49]: the Ki is 161 nM.

For the compound `COC1COCCC1NC1CCN(C(=O)c2ncnc(N3CCn4c(-c5ccccc5)cnc4C3)c2C)CC1` (stereo not shown) [Example 62s], the Ki came to 5140 nM.

Regarding `Cc1c(C(=O)N2CCC(N(C)C)CC2)ncnc1N1CCc2ccc(C(F)(F)F)cc2C1` [Example 79], the Ki was found to be 925 nM.

In the case of `COC1COCCC1NC1CCN(C(=O)c2ncnc(N3CCN(c4ccc(C(F)(F)F)cn4)CC3)c2C)CC1` (stereo not shown) [Example 56], the Ki was found to be 1020 nM.

Consider `COC1COCCC1NC1CCN(C(=O)c2ncnc(N3CCC4(CC3)CC(=O)c3ccccc3O4)c2C)CC1` (stereo not shown) [Example 62h], for which the Ki came out at 983 nM.

Take `COC1COCCC1NC1CCN(C(=O)c2ncnc(N3CCC(c4cccc(C)c4)CC3)c2C)CC1` (stereo not shown) [Example 15]: the Ki came to 732 nM.

As to `COC1COCCC1NC1CCN(C(=O)c2ncnc(N3CCc4ncc(C(F)(F)F)cc4C3)c2C)CC1` (stereo not shown) [Example 61], the Ki turned out to be 309 nM.

Take `COC1COCCC1NC1CCN(C(=O)c2ncnc(N3CC4CC4(c4cc(C(F)(F)F)cc(C(F)(F)F)c4)C3)c2C)CC1` (stereo not shown) [Example 62c]: the Ki was 351 nM.

Consider `COC1COCCC1NC1CCN(C(=O)c2ncnc(N3CCN(c4ccc(Cl)c(Cl)c4)CC3)c2C)CC1` (stereo not shown) [Example 62al], for which the Ki is 128 nM.

For `CO[C@@H]1COCC[C@@H]1NC1CCN(C(=O)c2ncnc(N3CCc4ccc(F)cc4C3)c2C)CC1` [Example 69h], the Ki was found to be 39 nM.

Take `COC1COCCC1NC1CCN(C(=O)c2ncnc(N3CCC(c4ccc(C(F)(F)F)cc4)C3)c2C)CC1` (stereo not shown) [Example 48]: the Ki is 159 nM.

Take `COC1COCCC1NC1CCN(C(=O)c2ncnc(N3CCN(c4ccc(Cl)c(C(F)(F)F)c4)CC3)c2C)CC1` (stereo not shown) [Example 62w]: the Ki turned out to be 54 nM.

For the compound `COc1c(C(=O)N2CCC(N3CCC(N(C)S(C)(=O)=O)CC3)CC2)ncnc1N1CCc2ccc(C(F)(F)F)cc2C1` [Example 68], the Ki turned out to be 50 nM.

Consider `COC1COCCC1NC1CCN(C(=O)c2ncnc(N3CCC(c4ccccc4)CC3)c2C)CC1` (stereo not shown) [Example 16], for which the Ki amounted to 1510 nM.

On to `Cc1c(C(=O)N2CCC(N[C@@H]3CCOC[C@@H]3F)CC2)ncnc1N1COc2ccc(C(F)(F)F)cc2C1` [Example 69l], for which the Ki was 14 nM.

With `Cc1c(C(=O)N2CCC(N3CCC(N(C)S(C)(=O)=O)CC3)CC2)ncnc1N1CCC(c2ccccc2C(F)(F)F)CC1` [Example 25], the Ki turned out to be 657 nM.

Consider `CCN(CC)C1CCN(C(=O)c2ncnc(N3CCc4ccc(C(F)(F)F)cc4C3)c2C)CC1` [Example 74], for which the Ki worked out at 552 nM.

Consider `COC1COCCC1NC1CCN(C(=O)c2ncnc(N3Cc4ccccc4C4(CC4)C3)c2C)CC1` (stereo not shown) [Example 62l], for which the Ki worked out at 1380 nM.

With `Cc1ccc(C2CCN(c3ncnc(C(=O)N4CCC(N5CCC(N(C)S(C)(=O)=O)CC5)CC4)c3C)CC2)cc1` [Example 24], the Ki was found to be 1300 nM.

As to `COC1COCCC1NC1CCN(C(=O)c2ncnc(N3CCN(c4c(C)cccc4C)CC3)c2C)CC1` (stereo not shown) [Example 62ai], the Ki is 34 nM.

Consider `Cc1c(C(=O)N2CCC(N[C@H]3CCOC[C@H]3F)CC2)ncnc1N1COc2ccc(C(F)(F)F)cc2C1` [Example 69o], for which the Ki is 10 nM.

Consider `Cc1c(C(=O)N2CCC(N[C@H]3CCOC[C@H]3F)CC2)ncnc1N1CCc2ccc(C(F)(F)F)cc2C1` [Example 69n], for which the Ki was 24 nM.

As for `COC1COCCC1NC1CCN(C(=O)c2ncnc(N3CCN(c4ncnc5scc(C)c45)CC3)c2C)CC1` (stereo not shown) [Example 62r], the Ki came out at 411 nM.

As to `COC1COCCC1NC1CCN(C(=O)c2ncnc(N3CCN(c4cccc(C(F)(F)F)c4)CC3)c2C)CC1` (stereo not shown) [Example 57], the Ki is 189 nM.

`CO[C@H]1COCC[C@H]1NC1CCN(C(=O)c2ncnc(N3CCc4ccc(C(F)(F)F)cc4C3)c2C)CC1` [Example 64]: the Ki worked out at 13 nM.

For `Cc1c(C(=O)N2CCC(N3CCC(N(C)S(C)(=O)=O)CC3)CC2)ncnc1N1CCC2(CCc3ccccc32)CC1` [Example 6], the Ki amounted to 1640 nM.

Regarding `COC1COCCC1NC1CCN(C(=O)c2ncnc(N3CCOC(c4ccccc4)C3)c2C)CC1` (stereo not shown) [Example 5], the Ki worked out at 4170 nM.

With `CO[C@H]1COCC[C@H]1N(C)C1CCN(C(=O)c2ncnc(N3CCc4ccc(C(F)(F)F)cc4C3)c2C)CC1` [Example 84], the Ki was found to be 41 nM.

Consider `Cc1c(C(=O)N2CCC(N[C@@H]3CCOC[C@@H]3F)CC2)ncnc1N1CCc2ccc(C(F)(F)F)cc2C1` [Example 69m], for which the Ki was determined as 16 nM.

For the compound `COC1COCCC1NC1CCN(C(=O)c2ncnc(N3CCCN(c4ccccc4C)CC3)c2C)CC1` (stereo not shown) [Example 62d], the Ki stood at 305 nM.

Turning to `Cc1c(C(=O)N2CCC(N3CCC(N(C)S(C)(=O)=O)CC3)CC2)ncnc1N1CCC(c2ccc(C(F)(F)F)cc2)CC1` [Example 17], the Ki came out at 1050 nM.

Take `CO[C@@H]1COCC[C@@H]1NC1CCN(C(=O)c2ncnc(N3CCC4(CCc5cc(Br)ccc5O4)CC3)c2C)CC1` [Example 62am]: the Ki amounted to 12 nM.

For `COC1COCCC1NC1CCN(C(=O)c2ncnc(N3CCc4ccc(C#N)cc4C3)c2C)CC1` (stereo not shown) [Example 55], the Ki was 235 nM.

As to `Cc1c(C(=O)N2CCC(C(N)=O)(N3CCCCC3)CC2)ncnc1N1CCc2ccc(C(F)(F)F)cc2C1` [Example 78], the Ki was 1250 nM.

Turning to `COc1nc(C(=O)N2CCC(N[C@H]3CCOC[C@H]3OC)CC2)c(C)c(N2CCc3ccc(C(F)(F)F)cc3C2)n1` [Example 69j], the Ki was 1 nM.

With `COC1COCCC1NC1CCN(C(=O)c2ncnc(N3CCCC(c4ccc(C(F)(F)F)cc4)C3)c2C)CC1` (stereo not shown) [Example 36], the Ki was 1270 nM.

For `COc1ccc(C2CCN(c3ncnc(C(=O)N4CCC(NC5CCOCC5OC)CC4)c3C)CC2)cc1` (stereo not shown) [Example 14], the Ki is 1610 nM.

In the case of `CO[C@@H]1COCC[C@@H]1NC1CCN(C(=O)c2ccnc(N3CCc4ccc(C(F)(F)F)cc4C3)c2C)CC1` [Example 69a], the Ki worked out at 30 nM.

Turning to `Cc1c(C(=O)N2CCC(N3CCC(N(C)S(C)(=O)=O)CC3)CC2)ncnc1N1CCC(c2ccccc2F)C1` (stereo not shown) [Example 44], the Ki stood at 3920 nM.

Take `Cc1c(C(=O)N2CCC(N3CCC(N(C)S(C)(=O)=O)CC3)CC2)ncnc1N1CCC(c2ccc(Cl)cc2)CC1` [Example 26]: the Ki stood at 1970 nM.

As for `COC1COCCC1NC1CCN(C(=O)c2ncnc(N3CCC(c4ccccc4C(F)(F)F)CC3)c2C)CC1` (stereo not shown) [Example 29], the Ki turned out to be 241 nM.

Consider `COC1COCCC1NC1CCN(C(=O)c2ncnc(N3CCc4ncc(Br)cc4C3)c2C)CC1` (stereo not shown) [Example 40], for which the Ki amounted to 304 nM.

Consider `CO[C@@H]1COCC[C@@H]1NC1CCN(C(=O)c2ncnc(N3CCc4ccc(C(F)(F)F)cc4C3)c2C)CC1` [Example 63], for which the Ki worked out at 4 nM.

For the compound `COC1COCCC1NC1CCN(C(=O)c2ncnc(N3CCCC(c4ccc(F)cc4)C3)c2C)CC1` (stereo not shown) [Example 32], the Ki was 3600 nM.
